Data: patent US10633407B2, “14-membered ketolides and methods of their preparation and use” (President and Fellows of Harvard College, priority 2014, dated 2020)
Values after ≈ are worked out from the molar mass of the structure shown.

Legend:
Assay in all cases: CLSI broth dilution MIC determination
Type in all cases: cell-based
[1] = tested on: P. aeruginosa HPA101-1477; details: Gram-negative
[2] = tested on: A. baumannii imipenem-resistant; details: Gram-negative
[3] = tested on: S. pyogenes Macrolide-resistant; details: S. pyogenes Macrolide-resistant; Gram-positive
[4] = tested on: A. baumannii chromosomal class C; details: Gram-negative
[5] = tested on: K. pneumoniae SHV-12; details: Gram-negative
[6] = tested on: E. faecalis ATCC 29212; details: E. faecalis ATCC 29212; Gram-positive
[7] = tested on: H. influenzae Erythro >4, Azithro 1; details: H. influenzae Erythro >4, Azithro 1; Gram-negative
From the text: MIC data was collected for the novel macrolides that this platform has produced against over 21 unique strains of B. subtilis, E. coli, S. aureus, S. pneumoniae, and H. influenzae, including several multidrug-resistant strains, with a special focus on macrolide resistant mechanisms (vide supra). […] CLSI standard procedures for broth dilution MIC determination were used. […] These genotypes can be constitutive or inducible.

[8] = tested on: E. faecalis Vancomycin-resistant; details: E. faecalis Vancomycin-resistant; Gram-positive
[9] = tested on: P. aeruginosa ATCC 27853; details: P. aeruginosa ATCC 27853; Gram-negative
[10] = tested on: K. pneumoniae KPC-2; details: Gram-negative
[11] = tested on: S. aureus MRSA: USA300; details: S. aureus MRSA: USA300; Gram-positive
Method in brief: (§1)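 Method: CLSI broth dilution; endpoint: MIC. Macrolide controls azithromycin and solithromycin added in many cases.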

[12] = tested on: S. pneumoniae erm B + mef A genotype; details: S. pneumoniae erm B + mef A genotype; Gram-positive
Method in brief: as §1

[13] = tested on: S. aureus ATCC 29213; details: S. aureus ATCC 29213; Gram-positive
Method in brief: as §1

[14] = tested on: E. coli CTX-M-14; details: Gram-negative
Method in brief: as §1

[15] = tested on: S. pneumoniae mef A genotype (second strain so labelled); details: Gram-positive
Method in brief: as §1

[16] = tested on: H. influenzae ATCC49247; details: Gram-negative
Method in brief: as §1

[17] = tested on: E. coli NDM-1; details: Gram-negative
Method in brief: as §1

[18] = tested on: E. coli TEM-1; details: E. coli TEM-1; Gram-negative
Method in brief: as §1

[19] = tested on: E. coli ATCC 25922; details: E. coli ATCC 25922; Gram-negative
Method in brief: as §1

[20] = tested on: S. aureus USA600, GISA; details: S. aureus USA600, GISA; Gram-positive
Method in brief: as §1

[21] = tested on: S. pneumoniae ATCC 49619; details: S. pneumoniae ATCC 49619; Gram-positive
Method in brief: as §1

[22] = tested on: S. aureus MRSA: USA100; details: S. aureus MRSA: USA100; Gram-positive
Method in brief: as §1

[23] = tested on: K. pneumoniae TEM-10; details: Gram-negative
[24] = tested on: S. aureus erm A genotype; details: S. aureus erm A genotype; Gram-positive
Method in brief: as §1

[25] = tested on: A. baumannii IMP-4; details: Gram-negative
[26] = tested on: K. pneumoniae ATCC 10031; details: K. pneumoniae ATCC 10031; Gram-negative
[27] = tested on: A. baumannii ATCC 19606; details: A. baumannii ATCC 19606; Gram-negative
[28] = tested on: S. pyogenes ATCC 19615; details: S. pyogenes ATCC 19615; Gram-positive

Row | SMILES | MIC [1] | MIC [2] | MIC [3] | MIC [4] | MIC [5] | MIC [6] | MIC [7] | MIC [8] | MIC [9] | MIC [10] | MIC [11] | MIC [12] | MIC [13] | MIC [14] | MIC [15] | MIC [16] | MIC [17] | MIC [18] | MIC [19] | MIC [20] | other results
1 | CC[C@H]1OC(=O)[C@H](C)C(=O)[C@H](C)[C@@H](O[C@@H]2OC(C)CC(N(C)C)C2O)[C@](C)(OC)C[C@@H](C)C(=O)[C@H](C)[C@H]2N(C/C=C\Cn3cc(-c4cccc(N)c4)nn3)C(=O)O[C@]12C (some centres unmarked) [FSM-100423] | > 32 µg/mL | 32 µg/mL (≈ 38.8 µM) | < 0.0312 µg/mL | 32 µg/mL (≈ 38.8 µM) | > 32 µg/mL | < 0.0312 µg/mL | 4 µg/mL (≈ 4.85 µM) | > 32 µg/mL | > 32 µg/mL | > 32 µg/mL | > 32 µg/mL | 0.0625 µg/mL | 0.125 µg/mL (≈ 0.152 µM) | > 32 µg/mL | < 0.0312 µg/mL | 2 µg/mL (≈ 2.42 µM) | > 32 µg/mL | > 32 µg/mL | > 32 µg/mL | > 32 µg/mL | MIC [21]: < 0.0312 µg/mL; MIC [22]: > 32 µg/mL; MIC [23]: > 32 µg/mL; MIC [24]: > 32 µg/mL; MIC [25]: > 32 µg/mL; MIC [26]: 16 µg/mL (≈ 19.4 µM); MIC [27]: 32 µg/mL (≈ 38.8 µM); MIC [28]: < 0.0312 µg/mL
2 | CC[C@H]1OC(=O)[C@H](C)C(=O)[C@H](C)[C@@H](O[C@@H]2OC(C)CC(N(C)C)C2O)[C@](C)(OC)C[C@@H](C)C(=O)[C@H](C)[C@H]2N(C/C=C/Cn3nnnc3-c3ccccn3)C(=O)O[C@]12C (some centres unmarked) [FSM-100376] | > 32 µg/mL | 32 µg/mL (≈ 39.4 µM) | < 0.0312 µg/mL | 16 µg/mL (≈ 19.7 µM) | > 32 µg/mL | < 0.0312 µg/mL | 1 µg/mL (≈ 1.23 µM) | > 32 µg/mL | 32 µg/mL (≈ 39.4 µM) | > 32 µg/mL | 8 µg/mL (≈ 9.85 µM) | 0.25 µg/mL | < 0.0312 µg/mL | > 32 µg/mL | < 0.0312 µg/mL | 1 µg/mL (≈ 1.23 µM) | > 32 µg/mL | 16 µg/mL (≈ 19.7 µM) | 8 µg/mL (≈ 9.85 µM) | > 32 µg/mL | MIC [21]: < 0.0312 µg/mL; MIC [22]: > 32 µg/mL; MIC [23]: 32 µg/mL (≈ 39.4 µM); MIC [24]: > 32 µg/mL; MIC [25]: > 32 µg/mL; MIC [26]: 8 µg/mL (≈ 9.85 µM); MIC [27]: 16 µg/mL (≈ 19.7 µM); MIC [28]: < 0.0312 µg/mL
3 | CC[C@H]1OC(=O)[C@@](C)(F)C(=O)[C@H](C)[C@@H](O[C@@H]2OC(C)CC(N(C)C)C2O)[C@](C)(OC)C[C@@H](C)C(=O)[C@H](C)[C@H]2N(C/C=C/Cn3nnc(-c4ccccn4)n3)C(=O)O[C@]12C (some centres unmarked) [FSM-100389] | > 32 µg/mL | 16 µg/mL (≈ 19.3 µM) | < 0.0312 µg/mL | 32 µg/mL (≈ 38.6 µM) | > 32 µg/mL | < 0.0312 µg/mL | 1 µg/mL (≈ 1.2 µM) | > 32 µg/mL | > 32 µg/mL | > 32 µg/mL | 2 µg/mL (≈ 2.41 µM) | 0.0625 µg/mL | < 0.0312 µg/mL | > 32 µg/mL | < 0.0312 µg/mL | 1 µg/mL (≈ 1.2 µM) | > 32 µg/mL | 32 µg/mL (≈ 38.6 µM) | 32 µg/mL (≈ 38.6 µM) | > 32 µg/mL | MIC [21]: < 0.0312 µg/mL; MIC [22]: > 32 µg/mL; MIC [23]: > 32 µg/mL; MIC [24]: > 32 µg/mL; MIC [25]: > 32 µg/mL; MIC [26]: 4 µg/mL (≈ 4.82 µM); MIC [27]: 16 µg/mL (≈ 19.3 µM); MIC [28]: < 0.0312 µg/mL
4 | CC[C@H]1OC(=O)[C@@](C)(F)C(=O)[C@H](C)[C@@H](O[C@@H]2OC(C)CC(N(C)C)C2O)[C@](C)(OC)C[C@@H](C)C(=O)[C@H](C)[C@H]2N(C/C=C/Cn3nnnc3-c3ccccn3)C(=O)O[C@]12C (some centres unmarked) [FSM-100386] | > 32 µg/mL | > 32 µg/mL | 0.0625 µg/mL (≈ 0.0753 µM) | 32 µg/mL (≈ 38.6 µM) | > 32 µg/mL | < 0.0312 µg/mL | 2 µg/mL (≈ 2.41 µM) | > 32 µg/mL | > 32 µg/mL | > 32 µg/mL | 4 µg/mL (≈ 4.82 µM) | 0.25 µg/mL | < 0.0312 µg/mL | > 32 µg/mL | 0.0625 µg/mL (≈ 0.0753 µM) | 4 µg/mL (≈ 4.82 µM) | > 32 µg/mL | 16 µg/mL (≈ 19.3 µM) | 16 µg/mL (≈ 19.3 µM) | > 32 µg/mL | MIC [21]: < 0.0312 µg/mL; MIC [22]: > 32 µg/mL; MIC [23]: > 32 µg/mL; MIC [24]: > 32 µg/mL; MIC [25]: > 32 µg/mL; MIC [26]: 8 µg/mL (≈ 9.64 µM); MIC [27]: 32 µg/mL (≈ 38.6 µM); MIC [28]: < 0.0312 µg/mL
5 | CC[C@H]1OC(=O)[C@@](C)(F)C(=O)[C@H](C)[C@@H](O[C@@H]2OC(C)CC(N(C)C)C2O)[C@](C)(OC)C[C@@H](C)C(=O)[C@H](C)[C@H]2N(C/C=C/Cn3cc(-c4nccs4)nn3)C(=O)O[C@]12C (some centres unmarked) [FSM-11562] | > 32 µg/mL | 8 µg/mL (≈ 9.58 µM) | 0.125 µg/mL (≈ 0.15 µM) | 8 µg/mL (≈ 9.58 µM) | > 32 µg/mL | ≤ 0.0312 µg/mL | 2 µg/mL (≈ 2.4 µM) | > 32 µg/mL | > 32 µg/mL | > 32 µg/mL | 1 µg/mL (≈ 1.2 µM) | 0.25 µg/mL | 0.0625 µg/mL (≈ 0.0748 µM) | > 32 µg/mL | 0.0625 µg/mL (≈ 0.0748 µM) | 4 µg/mL (≈ 4.79 µM) | > 32 µg/mL | 16 µg/mL (≈ 19.2 µM) | 16 µg/mL (≈ 19.2 µM) | > 32 µg/mL | MIC [21]: ≤ 0.0312 µg/mL; MIC [22]: > 32 µg/mL; MIC [23]: 32 µg/mL (≈ 38.3 µM); MIC [24]: > 32 µg/mL; MIC [25]: > 32 µg/mL; MIC [26]: 4 µg/mL (≈ 4.79 µM); MIC [27]: 8 µg/mL (≈ 9.58 µM); MIC [28]: ≤ 0.0312 µg/mL
